The subject of data set [1] is PD-L1. The data set can be described thus: IHC staining of PD-L1 in lung cancer (urethane model). It is filed as in vivo, mouse. The note with it: 5-aza-dC and MS-275 together. How it is done: (§1) Urethane model: 6-8-week-old mice under FVB/N background were intraperitoneally (i.p.) injected with urethane (1 g/kg body weight, Sigma-Aldrich, St. Louis, MO, USA) once a week for six weeks. All mice were sacrificed for lung tumor examinations seven (for no drug treatment experiments) or six (for drug treatment experiments) weeks post urethane treatment. For drug treatment experiments, the epigenetic agents 5-aza-dC (1 mg/kg body weight, Sigma-Aldrich, St. Louis, MO, USA) and MS-275 (1 mg/kg body weight, Selleckchem, Houston, TX, USA), chemotherapeutic drugs carboplatin (30 mg/kg body weight, AdipoGen, San Diego, CA, USA) and paclitaxel (15 mg/kg body weight, AdipoGen, San Diego, CA, USA), and/or PD-1 neutralizing antibody (200 μg/mouse, BioXCell, West Lebanon, NH, USA) were i.p injected as indicated in FIG. 4. Surface tumors in mouse lungs were counted by three blinded readers under a dissecting microscope, and tumor diameters were measured by microcalipers. K-Ras^G12D model: 6-8-week-old mice under FVB/N background were intranasally administered 1×10^7 plaque-forming units of Cre-expressing adenovirus (adenocre; Gene Transfer Vector Core, University of Iowa, Iowa City, IA). Three months post AdenoCre treatment, all mice were sacrificed for lung tumor examinations.
Mouse or tissues were excised, fixed in formalin, embedded in paraffin, and cut into […] sections. Sections were stained with H&E, or subjected to sequential incubations with different primary antibodies and peroxidase-conjugated goat anti-rabbit secondary antibodies. The human lung tumor tissue arrays were described previously (Sun et al., Oncogene 35, 2299-2310 (2016)).
Lung tissues were excised, fixed in formalin, embedded in paraffin, and cut into 4-μm-thick sections. Sections were stained with H&E, or subjected to sequential incubations with the indicated primary antibodies, biotinylated secondary antibodies and streptavidin-HRP.

The test system of data set [2] is lung cancer induced by urethane. The data set can be described thus: Urethane model of lung cancer, tumor examination. To be noted: ΔSPC mice (lung epithelial PDLIM2 deletion), 5-aza-dC and MS275 combination therapy (Epi). It is filed as in vivo, mouse. How it is done:
as §1
PDLIM2flx/flx/SP-C-rtTAtg/−/(tetO)7CMV-Cretg/tg (ΔSPC) mice under a pure FVB/N background and PDLIM2−/− mice under a pure BABL/C background have been described before (Sun et al., Nat. Commun. 2019. 10, 5324). For lung carcinogenesis, six to eight week old ΔSPC and wild type FVB/N mice were intraperitoneally (i.p.) injected with urethane (1 mg/g body weight, Sigma-Aldrich, St. Louis, MO, USA) once a week for six consecutive weeks, followed by different treatment as shown in FIGS. 45A and 49A. Mice were sacrificed for lung inflammation and tumor examinations at six weeks post urethane treatment. Surface tumors in mouse lungs were counted blinded under a dissecting microscope, and tumor diameters were measured by microcalipers. […]

A further data set deals with human lung cancer cells. The data set can be described thus: Cell growth assays. The class given is cell-based. To be noted: human lung cancer cells with PDLIM2 knockdown (shRNA), in vitro. The method, then: Cells were seeded into 12-well plates at a density of 5,000 cells per well, in the presence or absence of the indicated treatment. Cell density was determined by replacing the medium with 2 μmol/L of calcein AM in 1× dissociation solution (Trevigen) at the indicated time points. After 1 h of incubation, diesterase activity (relative fluorescence units) was measured with a Tecan Infinite 200 Microplate Reader, using an excitation wavelength of 485 nm and emission wavelength of 520 nm.

The subject of data set [3] is PDLIM2. The data set can be described thus: qPCR analysis of PDLIM2 in mouse MAD109 lung cancer cells. It is filed as cell-based. A general note: In qPCR the cycle at which signal appears reflects the starting amount.
The test system of data set [4] is PDLIM2. Briefly: IHC staining of PDLIM2 in mouse lung tumors and tissues (urethane model). The class given is in vivo. The method, then: as §1
Mouse or tissues were excised, fixed in formalin, embedded in paraffin, and cut into 4-pm-thick sections. […]

Data set [5] is described as follows: Toxicity: animal body weight and H&E staining of major organs. The class given is in vivo, mouse. To be noted: mice with lung cancer; 1 mg/kg of 5-aza-dC and MS-275 twice per week for 6 weeks.
Data set [6] deals with PD-L1. Briefly: qPCR of PD-L1 in lung cancer cells. The class given is cell-based, human. To be noted: lung cancer cells. From the text:
Mouse lung tissues and BAL cells were subjected to RNA extraction, RNA reverse transcription and real-time PCR as described (Li et al., Oncoimmunology 7, e1435250 (2018); Sun et al., Bio. Protoc. 7, pii: e2287 (2017)).

For data set [7], the system named is PDLIM2. The data set can be described thus: qPCR analysis of PDLIM2 expression in human lung cancer cell lines. The class given is cell-based.

SMILES strings stand for the structures. Entries after “also recorded” stand apart in the source; their conditions may differ.

As for `Nc1ccccc1NC(=O)c1ccc(CNC(=O)OCc2cccnc2)cc1` [MS-275, entinostat], the “PD-L1 expression in lung cancer (IHC staining)” value in the data set on PD-L1 [1] was “PD-L1 induction”. For the same compound, the “lung cancer treatment (tumor examination)” value in data set [2] is “completely lost the ability to treat lung cancer; also recorded: complete resistance”. For the same compound, in the data set with human lung cancer cells, the cell growth result is “protected human lung cancer cells; also recorded: protection of human lung cancer cells”. The “PDLIM2 expression (qPCR)” value in the data set on PDLIM2 [3] was “PDLIM2 re-induction”; with PDLIM2 [7] (H460 human lung cancer cells), “PDLIM2 recovery; also recorded: time-dependent induction of PDLIM2”; with PDLIM2 [7] (human lung cancer cell lines), “induction of PDLIM2”; with PDLIM2 [7] (human lung cancer cell lines, listed as MS275), “induced PDLIM2 re-expression”; with PDLIM2 [7] (normal human lung epithelial cell line NL-20 with oncogenic K-Ras Q61H mutant), “PDLIM2 re-induction”. Besides, the “PDLIM2 expression in murine lung cancers” value in the data set on PDLIM2 [4] (both in vitro and in vivo) is on record as “could be restored”. Besides, the “PDLIM2 expression in mouse lung tumor (IHC staining)” value in the data set on PDLIM2 [4] (urethane model, 5-aza-dC and MS-275 (epigenetic drugs) given together) was “PDLIM2 recovery”. Moreover, the animal body weight result in data set [5] is listed as “body weight loss”. In addition, the “PD-L1 expression (qPCR)” value in the data set with PD-L1 [6] is given as “PD-L1 induction”.

Source of the values: US12637498B2, “PDLIM2 as a biomarker for cancer and as an anti-cancer treatment target” (UNIVERSITY OF PITTSBURGH—OF THE COMMONWEALTH SYSTEM OF …, priority 2019, dated 2026).
